According to patent US7531646B2, “β-D-ribosidase activity indicators with a chromogenic substrate” (priority 2001, dated 2009):
Where a name gives a salt, the structure may show the parent alone.

How the values were obtained:
Format in all cases: cell-based
Providencia stuartii = experiment: Substrate hydrolysis on Columbia agar; conditions: 300 mg/l, 18 hours
[1] = tested on: Haemolytic streptococcus B; experiment: Substrate hydrolysis on Columbia agar; conditions: 300 mg/l, 18 hours
Salmonella oranienburg = experiment: Substrate hydrolysis on Columbia agar; conditions: Salmonella oranienburg SAX 56; 300 mg/l; 18 hours
Vibrio fluvialis = experiment: Substrate hydrolysis on Columbia agar; parameters: key to the marks not given beside the values; conditions: Vibrio fluvialis NCTC 11327; 300 mg/l; 18 hours
Serratia marcescens = experiment: Substrate hydrolysis on Columbia agar; conditions: Serratia marcescens NCTC 10211; 300 mg/l; 18 hours
M. morganii = experiment: Substrate hydrolysis on Columbia agar; conditions: 300 mg/l, 18 hours
[2] = tested on: Arcanobacterium haemolyticus; experiment: Substrate hydrolysis on Columbia agar; conditions: Arcanobacterium haemolyticus NCTC 52; 300 mg/l; 18 hours
Gram negative bacteria = experiment: Substrate hydrolysis on Columbia agar, summary of screen
[3] = tested on: Haemolytic streptococcus C; experiment: Substrate hydrolysis on Columbia agar; conditions: 300 mg/l, 18 hours
Salmonella hadar = experiment: Substrate hydrolysis on Columbia agar; conditions: Salmonella hadar SAX 57; 300 mg/l; 18 hours
Enterococcus faecium = experiment: Substrate hydrolysis on Columbia agar; conditions: 300 mg/l, 18 hours
Shigella dysenteriae = experiment: Substrate hydrolysis on Columbia agar; conditions: 300 mg/l, 18 hours
Aeromonas sobria = experiment: Substrate hydrolysis on Columbia agar; conditions: Aeromonas sobria NCTC 11215; 300 mg/l; 18 hours
Vibrio vulnificus = experiment: Substrate hydrolysis on Columbia agar; conditions: 300 mg/l, 18 hours
Streptococcus gordonii = experiment: Substrate hydrolysis on Columbia agar; conditions: Streptococcus gordonii NCTC 7865; 300 mg/l; 18 hours
[4] = tested on: Staphylococcus saprophyticus; experiment: Substrate hydrolysis on Columbia agar; conditions: 300 mg/l, 18 hours
Streptococcus agalactiae = experiment: Substrate hydrolysis on Columbia agar; conditions: Streptococcus agalactiae NCTC 8181; 300 mg/l; 18 hours
[5] = tested on: Haemolytic streptococcus G; experiment: Substrate hydrolysis on Columbia agar; conditions: 300 mg/l, 18 hours
Y. enterocolitica = experiment: Substrate hydrolysis on Columbia agar; conditions: 300 mg/l, 18 hours
Shigella sonnei = experiment: Substrate hydrolysis on Columbia agar; conditions: 300 mg/l, 18 hours
Description: (§1) This was achieved using a densitometer.
(§2) The same method was used as in Example 1.

Shigella flexneri = experiment: Substrate hydrolysis on Columbia agar; conditions: 300 mg/l, 18 hours
Description: as §1, §2

Salmonella motevideo = experiment: Substrate hydrolysis on Columbia agar; conditions: Salmonella motevideo SAX 55; 300 mg/l; 18 hours
Description: as §1, §2

Shigella boydii = experiment: Substrate hydrolysis on Columbia agar; conditions: 300 mg/l, 18 hours
Description: as §1, §2

Vibrio mimicus = experiment: Substrate hydrolysis on Columbia agar; conditions: Vibrio mimicus NCTC 11435; 300 mg/l; 18 hours
Description: as §1, §2

Salmonella alachia = experiment: Substrate hydrolysis on Columbia agar; conditions: Salmonella alachia SAX 60; 300 mg/l; 18 hours
Description: as §1, §2

E. aerogenes = experiment: Substrate hydrolysis on Columbia agar; conditions: 300 mg/l, 18 hours
Vibrio parahaemolyticus = experiment: Substrate hydrolysis on Columbia agar; conditions: 300 mg/l, 18 hours
Listeria innocua = experiment: Substrate hydrolysis on Columbia agar; conditions: Listeria innocua PHLS wild; 300 mg/l; 18 hours
Vibrio hollisae = experiment: Substrate hydrolysis on Columbia agar; conditions: Vibrio hollisae NCTC 11640; 300 mg/l; 18 hours
Bacillus cereus = experiment: Substrate hydrolysis on Columbia agar; conditions: Bacillus cereus NCTC; 300 mg/l; 18 hours

O=c1cc(-c2ccc(OC3OC(CO)C(O)C3O)c(O)c2)oc2ccccc12 [DHF-riboside, 3′,4′-dihydroxyflavone-4′-β-D-ribofuranoside Sodium Salt]
Hydrolysis by Gram negative bacteria (Providencia stuartii; Providencia stuartii PST 1): + | Hydrolysis by Gram negative bacteria (Providencia stuartii; Providencia stuartii PST 2): + | Hydrolysis by Gram positive organisms ([1]; Haemolytic streptococcus B 1): − | Hydrolysis by Gram positive organisms ([1]; Haemolytic streptococcus B 2): − | Hydrolysis by Gram positive organisms ([1]; Haemolytic streptococcus B 3): − | Hydrolysis by Gram negative bacteria (Salmonella oranienburg): ++ | Hydrolysis by Gram negative bacteria (Vibrio fluvialis): ++ | Hydrolysis by Gram negative bacteria (Serratia marcescens): ++ | Hydrolysis by Gram negative bacteria (M. morganii; M. morganii MMO 1): + | Hydrolysis by Gram negative bacteria (M. morganii; M. morganii MMO 2): + | Hydrolysis by Gram negative bacteria (M. morganii; M. morganii NCTC 235): − | Hydrolysis by Gram positive organisms [2]: + | Gram negative bacteria tested that hydrolysed the substrate (Gram negative bacteria; of 120 Gram negative bacteria tested, 300 mg/l, 18 hours): 68.3% | colouration and diffusion of positive strains (Gram negative bacteria; positive Gram negative strains, agar): clearly visible black chelate which remained restricted to bacterial colonies without diffusion into the surrounding agar | Hydrolysis by Gram positive organisms ([3]; Haemolytic streptococcus C 1): − | Hydrolysis by Gram positive organisms ([3]; Haemolytic streptococcus C 67736): − | Hydrolysis by Gram positive organisms ([3]; Haemolytic streptococcus C 68350): − | Hydrolysis by Gram negative bacteria (Salmonella hadar): ++ | Hydrolysis by Gram positive organisms (Enterococcus faecium; Enterococcus faecium 1): − | Hydrolysis by Gram positive organisms (Enterococcus faecium; Enterococcus faecium 2): − | Hydrolysis by Gram positive organisms (Enterococcus faecium; Enterococcus faecium 3): − | Hydrolysis by Gram positive organisms (Enterococcus faecium; Enterococcus faecium 4): + | Hydrolysis by Gram positive organisms (Enterococcus faecium; Enterococcus faecium 5): − | Hydrolysis by Gram positive organisms (Enterococcus faecium; Enterococcus faecium 6): + | Hydrolysis by Gram positive organisms (Enterococcus faecium; Enterococcus faecium 7): − | Hydrolysis by Gram positive organisms (Enterococcus faecium; Enterococcus faecium 121285 - wild ′99): − | Hydrolysis by Gram negative bacteria (Shigella dysenteriae; Shigella dysenteriae (type 2) NCTC 9952): ++ | Hydrolysis by Gram negative bacteria (Shigella dysenteriae; Shigella dysenteriae (type 3) NCTC 9720): ++ | Hydrolysis by Gram negative bacteria (Shigella dysenteriae; Shigella dysenteriae (type 4) NCTC 9759): ++ | Hydrolysis by Gram negative bacteria (Aeromonas sobria): 0 | Hydrolysis by Gram negative bacteria (Vibrio vulnificus; Vibrio vulnificus NCTC 11066): − | Hydrolysis by Gram negative bacteria (Vibrio vulnificus; Vibrio vulnificus NCTC 11067): − | Hydrolysis by Gram positive organisms (Streptococcus gordonii): − | Hydrolysis by Gram positive organisms ([4]; Staphylococcus saprophyticus 1): ++ | Hydrolysis by Gram positive organisms ([4]; Staphylococcus saprophyticus 2): ++ | Hydrolysis by Gram positive organisms ([4]; Staphylococcus saprophyticus 3): ++ | Hydrolysis by Gram positive organisms ([4]; Staphylococcus saprophyticus 4): ++ | Hydrolysis by Gram positive organisms ([4]; Staphylococcus saprophyticus 5): ++ | Hydrolysis by Gram positive organisms (Streptococcus agalactiae): − | Hydrolysis by Gram positive organisms ([5]; Haemolytic streptococcus G 1): − | Hydrolysis by Gram positive organisms ([5]; Haemolytic streptococcus G 2): − | Hydrolysis by Gram positive organisms ([5]; Haemolytic streptococcus G 3): + | Hydrolysis by Gram negative bacteria (Y. enterocolitica; Y. enterocolitica NCTC 10460): − | Hydrolysis by Gram negative bacteria (Y. enterocolitica; Y. enterocolitica NCTC 11176): − | Hydrolysis by Gram negative bacteria (Y. enterocolitica; Y. enterocolitica NCTC 11177): − | Hydrolysis by Gram negative bacteria (Y. enterocolitica; Y. enterocolitica NCTC 11600): − | Hydrolysis by Gram negative bacteria (Shigella sonnei; Shigella sonnei NCTC 8219): ++ | Hydrolysis by Gram negative bacteria (Shigella sonnei; Shigella sonnei NCTC 8574): ++ | Hydrolysis by Gram negative bacteria (Shigella sonnei; Shigella sonnei NCTC 8586): ++ | Hydrolysis by Gram negative bacteria (Shigella sonnei; Shigella sonnei NCTC 9774): ++ | Hydrolysis by Gram negative bacteria (Shigella sonnei; Shigella sonnei NCTC 10352): ++ | Hydrolysis by Gram negative bacteria (Shigella flexneri; Shigella flexneri NCTC 8192): ++ | Hydrolysis by Gram negative bacteria (Shigella flexneri; Shigella flexneri NCTC 9723): ++ | Hydrolysis by Gram negative bacteria (Shigella flexneri; Shigella flexneri NCTC 9780): ++ | Hydrolysis by Gram negative bacteria (Salmonella motevideo): ++ | Hydrolysis by Gram negative bacteria (Shigella boydii; Shigella boydii NCTC 9327): ++ | Hydrolysis by Gram negative bacteria (Shigella boydii; Shigella boydii NCTC 9732): ++ | Hydrolysis by Gram negative bacteria (Shigella boydii; Shigella boydii NCTC 9850): ++ | Hydrolysis by Gram negative bacteria (Vibrio mimicus): − | Hydrolysis by Gram negative bacteria (Salmonella alachia): ++ | Hydrolysis by Gram negative bacteria (E. aerogenes; E. aerogenes EAE 1): ++ | Hydrolysis by Gram negative bacteria (E. aerogenes; E. aerogenes NCIMB 10102): ++ | Hydrolysis by Gram negative bacteria (Vibrio parahaemolyticus; Vibrio parahaemolyticus NCTC 10441): − | Hydrolysis by Gram negative bacteria (Vibrio parahaemolyticus; Vibrio parahaemolyticus NCTC 10884): − | Hydrolysis by Gram negative bacteria (Vibrio parahaemolyticus; Vibrio parahaemolyticus NCTC 10903): − | Hydrolysis by Gram negative bacteria (Vibrio parahaemolyticus; Vibrio parahaemolyticus NCTC 11344): − | Hydrolysis by Gram negative bacteria (Vibrio parahaemolyticus; Vibrio parahaemolyticus NCTC 12205): − | Hydrolysis by Gram positive organisms (Listeria innocua): − | Hydrolysis by Gram negative bacteria (Vibrio hollisae): − | Hydrolysis by Gram positive organisms (Bacillus cereus): −
